In US8815872B2, “Macrocyclics pyrimidines as aurora kinase inhibitors” (Merck Patent GmbH, priority 2008, dated 2014):

Tests used:
Aurora A = molecular target: T1, Aurora A (Homo sapiens, UniProt O14965); assay: Aurora A enzyme assay (Caliper LC3000 mobility shift); format: biochemical
T1 construct: N-terminal GST fusion with full length Aurora A (1-403 amino acids); purchased Carna Biosciences 05-101
T1 sequence (O14965 1-403): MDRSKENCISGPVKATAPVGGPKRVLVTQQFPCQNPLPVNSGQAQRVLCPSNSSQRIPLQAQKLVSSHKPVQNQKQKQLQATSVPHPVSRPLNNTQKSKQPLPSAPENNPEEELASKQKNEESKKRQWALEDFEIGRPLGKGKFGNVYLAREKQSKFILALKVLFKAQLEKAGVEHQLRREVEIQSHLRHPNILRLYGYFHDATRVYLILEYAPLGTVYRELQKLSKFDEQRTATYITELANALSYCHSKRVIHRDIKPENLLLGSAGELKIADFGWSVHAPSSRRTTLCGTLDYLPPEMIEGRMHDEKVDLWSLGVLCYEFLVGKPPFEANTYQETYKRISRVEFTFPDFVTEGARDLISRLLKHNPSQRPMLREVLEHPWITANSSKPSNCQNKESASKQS
Procedure: (§1) The Aurora and other kinase assays described here were performed on two Caliper Life Sciences systems, the LC3000 and the Desktop Profiler. These provide data on enzyme activity via measurement of the relative amounts of phosphorylated or unphosphorylated fluorescently labelled substrate peptide at the end of an enzymatic reaction. These different states of peptide are resolved by applying a potential difference across the sample. The presence of a charged phosphate group on the product (as opposed to the substrate) causes a different peptide mobility between the two peptides. This is visualized by excitation of a fluorescent label on the substrate and product peptides and represented as peaks within the analysis software.
For example, in order to measure inhibitor activity of Aurora A inhibitors in the Caliper Life Sciences LC3000, a TTP Mosquito liquid handling instrument was used to place […] of an appropriate concentration of inhibitor in 100% DMSO (for a dose response curve calculation) into each well of a 384-well plate. To this reaction components were added to a final volume of 25 μl: • 0.067 ng/μl GST-Aurora A (Carna Biosciences 05-101. N-terminal GST fusion with full length Aurora A (1-403 amino acids), accession number NP_940835.1). • 15 μM ATP (Fluka, 02055) • 1 mM DTT (Sigma, D0632) • 1 mM MgC12 (Sigma, M1028) • 1 μM substrate peptide (sequence FITC-LRRASLG-(CONH2), synthesized by Tufts Peptide Synthesis service. • 100 mM HEPES pH 7.5 (Calbiochem, 391338) • 0.015% Brij-35 (Sigma, B4184)
The reaction was incubated for 90 min at 25° C., and then stopped by the addition of 70 μl of Stop buffer (100 mM HEPES pH 7.5, 0.015% Brij-35, 10 mM EDTA (Sigma, E7889)).
The plate was read on a Caliper LC 3000 in an Off-Chip mobility shift assay format, using the following parameters for a 12-sipper chip: screening pressure −1.8 psi, upstream voltage −2700, downstream voltage −1000. These conditions cause unphosphorylated substrate and phosphorylated product peptide to resolve as separate peaks allowing direct measurement of percentage of conversion of substrate to product. The percent conversion was plotted against concentration of inhibitor to produce a sigmoidal dose response curve, from which an IC50 was calculated using XLFit for Microsoft Excel.

Aurora B = Aurora B (Homo sapiens, UniProt Q96GD4); assay: Aurora B enzyme assay (Caliper); format: biochemical
Aurora B, sequence (Q96GD4 whole entry): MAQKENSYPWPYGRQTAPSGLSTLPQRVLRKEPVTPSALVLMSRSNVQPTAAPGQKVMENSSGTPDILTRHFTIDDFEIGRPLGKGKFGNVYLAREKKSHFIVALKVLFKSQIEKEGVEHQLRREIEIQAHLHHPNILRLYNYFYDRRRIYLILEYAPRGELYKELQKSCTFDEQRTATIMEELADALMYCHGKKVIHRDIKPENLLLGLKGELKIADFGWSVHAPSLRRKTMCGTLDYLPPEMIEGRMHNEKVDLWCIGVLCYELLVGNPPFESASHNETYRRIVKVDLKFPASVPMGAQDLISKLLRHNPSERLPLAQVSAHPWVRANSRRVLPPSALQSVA
Procedure: as §1

A549 = assay: Cellular activity A549; format: cell-based; details: Homo sapiens
Procedure: (§2) The susceptibility of a particular cell to treatment with the compounds according to the invention was determined by in vitro tests. Typically, a culture of the cell was combined with a compound according to the invention at various concentrations for a period of time that was sufficient to allow the active agents to induce cell death or to inhibit migration, usually between about one hour and one week. In vitro testing was carried out using cultivated cells from a biopsy sample. The viable cells remaining after the treatment then were counted.

MiaPaca2 = assay: Cellular activity MiaPaca2; format: cell-based; details: Homo sapiens, MIA PaCa-2
Procedure: as §2

Row | SMILES | IC50 (Aurora A) | IC50 (Aurora B) | IC50 (A549) | IC50 (MiaPaca2)
1 | NC(=O)[C@H]1[C@H]2C[C@H]3[C@H]1Nc1nc(ncc1F)Nc1cc(ccc1O)C(=O)CS[C@@H]3C2 | 1000 to 6250 nM | 1000 to 6250 nM |  | 
2 | NC(=O)[C@H]1[C@H]2C[C@H]3[C@H]1Nc1nc(ncc1F)Nc1cccc(c1)CCS(=O)(=O)[C@@H]3C2 | 1 to 100 nM | 1 to 100 nM | 1000 to 6250 nM | 1000 to 6250 nM
3 | Fc1cnc2nc1NC1CCCC(C1)OC/C=C\COc1cccc(c1)N2 (centres unmarked) | 101 to 1000 nM | 101 to 1000 nM |  | 
4 | CN1CCN(c2ccc3cc2OCCN[C@@H]2C[C@@H]4C[C@H]2[C@@H](Nc2nc(ncc2F)N3)[C@H]4C(N)=O)CC1 | 101 to 1000 nM | 1 to 100 nM | 101 to 1000 nM | 101 to 1000 nM
5 | O[C@@H]1COc2cccc(c2)Nc2ncc(F)c(n2)NC2CCCC(C2)OC[C@@H]1O (some centres unmarked) | 101 to 1000 nM |  |  | 
6 | NC(=O)[C@H]1[C@H]2C[C@H]3[C@H]1Nc1nc(ncc1F)Nc1ccc(F)c(c1)CC(=O)O[C@@H]3C2 | 1000 to 6250 nM | 1000 to 6250 nM |  | 
7 | NC[C@H]1[C@H]2C[C@H]3[C@H]1Nc1nc(ncc1F)Nc1cccc(c1)C(O)CS[C@@H]3C2 (some centres unmarked) | 1000 to 6250 nM |  | > 6250 nM | > 6250 nM
8 | NC(=O)[C@H]1[C@H]2C[C@H]3[C@H]1Nc1nc(ncc1F)Nc1cccc(c1)CS(=O)(=O)N[C@@H]3C2 | 101 to 1000 nM | 101 to 1000 nM |  | 
9 | Fc1cnc2nc1N[C@@H]1CCC[C@H](C1)OCCCCOc1cccc(c1)N2 | 101 to 1000 nM |  |  | 
10 | NC(=O)[C@H]1[C@H]2C[C@H]3[C@H]1Nc1nc(ncc1F)Nc1cccc(c1)CCC(=O)N[C@@H]3C2 | 101 to 1000 nM | 101 to 1000 nM | 1000 to 6250 nM | 1000 to 6250 nM
11 | Fc1cnc2nc1NC1CCC(CC1)OC/C=C\COc1cccc(c1)N2 | 101 to 1000 nM | > 6250 nM |  | 
12 | Nc1ccc(/C=C/NC(=O)[C@H]2[C@H]3C[C@H]4[C@H]2Nc2nc(ncc2F)Nc2cccc(c2)C(=O)CS[C@@H]4C3)cc1 | 101 to 1000 nM | 101 to 1000 nM | > 6250 nM | > 6250 nM
13 | Fc1cnc2nc1NC1CCCC(C1)OC/C=C/COc1cccc(c1)N2 (centres unmarked) | 101 to 1000 nM | 101 to 1000 nM |  | 
14 | CN1CCN(c2ccc3cc2NC(=O)CN[C@@H]2C[C@@H]4C[C@H]2[C@@H](Nc2nc(ncc2F)N3)[C@H]4C(N)=O)CC1 | 1 to 100 nM | 1 to 100 nM | 1000 to 6250 nM | 1000 to 6250 nM
15 | NC(=O)[C@H]1[C@H]2C[C@H]3[C@H]1Nc1nc(ncc1F)Nc1cnn(c1)CCS[C@@H]3C2 | 1 to 100 nM |  |  | 
16 | C=CC(=O)NC[C@H]1[C@H]2C[C@H]3[C@H]1Nc1nc(ncc1F)Nc1cccc(c1)C(O)CS[C@@H]3C2 (some centres unmarked) | 101 to 1000 nM |  | > 6250 nM | > 6250 nM
17 | NC(=O)[C@H]1[C@H]2C[C@H]3[C@H]1Nc1nc(ncc1F)Nc1cccc(c1)C(O)CN[C@@H]3C2 (some centres unmarked) | 101 to 1000 nM | 1 to 100 nM | 1000 to 6250 nM | 1000 to 6250 nM
18 | NC(=O)[C@H]1[C@H]2C[C@H]3[C@H]1Nc1nc(ncc1F)Nc1cccc(c1)C(O)CS[C@@H]3C2 (some centres unmarked) | 1 to 100 nM |  | 101 to 1000 nM | 101 to 1000 nM
19 | Fc1cnc2nc1N[C@H]1CCC[C@@H](C1)OCCCCOc1cccc(c1)N2 | 1000 to 6250 nM |  |  | 

Row | SMILES | IC50 (Aurora A) | IC50 (Aurora B) | IC50 (A549) | IC50 (MiaPaca2)
20 | NC(=O)[C@H]1[C@H]2C[C@H]3[C@H]1Nc1nc(ncc1F)Nc1cccc(c1)[C@H](OCCO)CS[C@@H]3C2 | 1 to 100 nM |  | 1000 to 6250 nM | 1000 to 6250 nM
21 | CN1CCC(c2ccc3cc2OCCS[C@@H]2C[C@@H]4C[C@H]2[C@@H](Nc2nc(ncc2F)N3)[C@H]4C(N)=O)CC1 | 1 to 100 nM | 1 to 100 nM | 101 to 1000 nM | 101 to 1000 nM
22 | NC(=O)[C@H]1[C@H]2C[C@H]3[C@H]1Nc1nc(ncc1F)Nc1cccc(c1)CC[S+]([O-])[C@@H]3C2 (some centres unmarked) | 1 to 100 nM | 1 to 100 nM | 1000 to 6250 nM | 1000 to 6250 nM
23 | O[C@@H]1COC2CCCC(C2)Nc2nc(ncc2F)Nc2cccc(c2)OC[C@@H]1O (some centres unmarked) | 101 to 1000 nM |  |  | 
24 | NC(=O)[C@H]1[C@H]2C[C@H]3[C@H]1Nc1nc(ncc1F)Nc1cccc(c1)S(=O)(=O)NC(=O)N[C@@H]3C2 | 101 to 1000 nM |  |  | 
25 | NC(=O)[C@H]1[C@@H]2CC3CNC(=O)Cc4cccc(c4)Nc4ncc(F)c(n4)N[C@@H]1[C@@H]3C2 (some centres unmarked) | 1 to 100 nM |  |  | 
26 | Fc1cnc2nc1NC1CCC(CC1)OC/C=C/COc1cccc(c1)N2 | 101 to 1000 nM |  |  | 
27 | NC(=O)[C@H]1[C@H]2C[C@H]3[C@H]1Nc1nc(ncc1F)Nc1cccc(c1)N(Cc1cccs1)C(=O)CS[C@@H]3C2 | 101 to 1000 nM | 1000 to 6250 nM |  | 
28 | NC(=O)[C@H]1C([C@@H](O)CO)CC2[C@H]1Nc1nc(ncc1F)Nc1cccc(c1)OC[C@H](O)[C@H]2O (some centres unmarked) | 1000 to 6250 nM |  |  | 
29 | NC(=O)[C@H]1[C@H]2C[C@H]3[C@H]1Nc1nc(ncc1F)Nc1cccc(c1)COCc1cn(nn1)[C@@H]3C2 | 1 to 100 nM |  | 1000 to 6250 nM | 1000 to 6250 nM
30 | NC(=O)[C@H]1[C@H]2C[C@H]3[C@H]1Nc1nc(ncc1F)Nc1cccc(c1)NC(=O)CN[C@@H]3C2 | 1000 to 6250 nM | 101 to 1000 nM |  | 
31 | NC(=O)[C@H]1[C@H]2C[C@H]3[C@H]1Nc1nc(ncc1F)Nc1cccc(c1)/C=C\S[C@@H]3C2 | 101 to 1000 nM |  |  | 
32 | NC(=O)[C@H]1C([C@@H](O)CO)CC2C(O)[C@H](O)COc3cccc(c3)Nc3ncc(F)c(n3)N[C@H]21 (some centres unmarked) | 1000 to 6250 nM |  |  | 
33 | CC(=O)N1Cc2cccc(c2)Nc2ncc(F)c(n2)N[C@@H]2[C@@H]3C[C@@H](C[C@H]3C1)[C@@H]2C(=O)O | 1000 to 6250 nM | > 6250 nM |  | 
34 | CN1CCN(c2ccc3cc2C(=O)CS[C@@H]2C[C@@H]4C[C@H]2[C@@H](Nc2nc(ncc2F)N3)[C@H]4C(N)=O)CC1 | 1 to 100 nM |  | 1000 to 6250 nM | 1000 to 6250 nM
35 | CN1CCN(c2ccc3cc2OCCN(C)[C@@H]2C[C@@H]4C[C@H]2[C@@H](Nc2nc(ncc2F)N3)[C@H]4C(N)=O)CC1 | 1 to 100 nM | 1 to 100 nM |  | 
36 | CN1CCN(c2ccc3cc2C(=O)CS(=O)(=O)[C@@H]2C[C@@H]4C[C@H]2[C@@H](Nc2nc(ncc2F)N3)[C@H]4C(N)=O)CC1 | 1 to 100 nM | 1000 to 6250 nM |  | 
37 | CN1CCN(c2ccc3cc2C(O)CS(=O)(=O)[C@@H]2C[C@@H]4C[C@H]2[C@@H](Nc2nc(ncc2F)N3)[C@H]4C(N)=O)CC1 (some centres unmarked) | 1 to 100 nM | 1 to 100 nM |  | 
38 | CCC1CC2[C@H](O)C(O)COc3cccc(c3)Nc3ncc(F)c(n3)N[C@H]2[C@H]1C(N)=O (some centres unmarked) | 1000 to 6250 nM |  |  | 
